From patent US20240344241A1, “PROTEINACEOUS MOLECULES AND USES THEREFOR” (THE UNIVERSITY OF QUEENSLAND, priority 2021, published 2024)
Bridge positions count the residues as written; N and C are the ends. Ends that are not written are not given here. Peptide text beside a SMILES is read from it.

Experiments:
[1] = biological target: T1, biotinylated human β-FXIIa (Homo sapiens, UniProt P00748); assay: Surface plasmon resonance binding to FXIIa
T1 construct: purchased Molecular Innovations
Description: Binding kinetics of each peptide towards biotinylated human β-FXIIa (Molecular Innovations) and non-labelled zymogen FXII (Haematologic Technologies) were determined using a Biacore T200 machine (Cytiva). For β-FXIIa binding measurements, the running buffer was HBS-EP+(10 mM HEPES, 150 mM NaCl, 3 mM EDTA and 0.05% (v/v) surfactant P20, pH 7.4). Biotinylated β-FXIIa was immobilized on a Sensor Chip CAP (Cytiva) using Biotin CAPture Reagent (Cytiva). A series of concentrations of each peptide were injected as analyte and the binding kinetics were modelled using a 1:1 binding model. Regeneration of sensor surface was performed after each measurement cycle. For FXII binding measurements, the running buffer was PBST (137 mM NaCl, 2.7 mM KCl, 10 mM Na2HPO4, 1.8 mM KH2PO4, 0.05% Tween-20). Non-labelled FXII was immobilized on a Sensor Chip CM5 (Cytiva) using Amine Coupling Kit (Cytiva), achieving a final immobilization level of 2500 RU. Each peptide was flowed through immobilized FXII at 5 μM for 60 s and allowed dissociation for 150 s.

bovine trypsin = biological target: T2, bovine trypsin (Bos taurus, UniProt P00760); assay: Surface plasmon resonance binding to trypsin
T2 sequence (P00760 24-246): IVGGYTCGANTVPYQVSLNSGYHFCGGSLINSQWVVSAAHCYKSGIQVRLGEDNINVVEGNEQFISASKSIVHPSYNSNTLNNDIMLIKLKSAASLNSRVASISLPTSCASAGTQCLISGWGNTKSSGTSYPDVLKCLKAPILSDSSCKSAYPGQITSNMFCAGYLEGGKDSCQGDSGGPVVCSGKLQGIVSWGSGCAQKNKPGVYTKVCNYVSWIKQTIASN

Human β-FXIIa = biological target: T3, Human β-FXIIa (Homo sapiens, UniProt P00748); assay: FXIIa competitive inhibition assay, colorimetric substrate Ac-QRFR-pNA; type: biochemical
T3 construct: Human β-FXIIa was obtained from Molecular Innovations, together with human FXa, human FXIa, human α-thrombin, and human plasma kallikrein; purchased Molecular Innovations; host or cells: purified from human plasma
How it was run: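 Assays run three times in duplicate at pH 8.0 (Tris-HCl, NaCl, CaCl2, Triton X-100). Rates of pNA or MCA release after enzyme–inhibitor equilibration at room temperature were fitted by non-linear regression to the Morrison equation for Ki.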

Stability in human serum = assay: Stability in human serum
Description: Briefly, peptides were incubated at a final concentration of 30 μM in human serum (human male AB serum, Sigma-Aldrich) at 37° C. for 0, 1, 12 and 24 h. The reaction was stopped at designated times, with the serum proteins being denatured by addition of two volumes of acetonitrile (v/v). The samples were then spun at 17,000 g for 10 min and the amount of peptide in the supernatant was quantified using analytical HPLC. The percentage of peptide remaining at 1, 12 and 24 h was calculated using the area of the serum-treated peptide peak from 0 h as 100%.

Human trypsin = biological target: T4, Human trypsin (Homo sapiens, UniProt P07477); assay: Trypsin competitive inhibition assay; type: biochemical
T4 construct: purchased Sigma-Aldrich; host or cells: purified from human tissue
Description: (§1) The activity of acyclic and cyclic MCoFx1-5 and analogues thereof was assessed in competitive inhibition assays, as previously described in Swedberg et al. (2016) J Med Chem, 59: 7287-7292. Human β-FXIIa was obtained from Molecular Innovations, together with human FXa, human FXIa, human α-thrombin, and human plasma kallikrein. Human cationic trypsin and human plasmin were obtained from Sigma-Aldrich, and recombinant human matriptase was sourced from R&D Systems. Recombinant human urokinase (uPA) and recombinant human tissue plasminogen activator (tPA) were expressed in Expi293 cells, as previously described in Li et al. (2019) Chembiochem, 20: 46-50. FXIIa inhibition assays were performed in clear, low-binding 96-well plates using 250 μL (final volume) of assay buffer (0.1 M Tris-HCl pH 8.0, 0.1 M NaCl, 10 mM CaCl2 and 0.005% Triton X-100). Inhibitors were serially diluted and incubated with 10 nM FXIIa at room temperature to reach equilibrium. After adding 100 μM Ac-QRFR-pNA substrate (KM=162 μM), enzymatic activity was measured by monitoring release of the pNA moiety using a TECAN infinite M1000 Pro plate reader (A=405 nm, reading interval, 10 s; assay time course, 7 min). Assays were conducted in three times in duplicate. Substrate kinetic constants (Michaelis-Menten) and inhibition constants (Morrison K) were determined by non-linear regression using Prism 7 (GraphPad). Selectivity assays with off-target proteases were performed in a similar way, except that different concentrations of enzyme and substrate were used, as indicated in Table 16. For assays using a fluorescent substrate (peptide-4-methylcoumaryl-7-amide, MCA), black low-binding 96-well plates were used and activity was measured using a TECAN infinite M1000 pro plate reader (λex 360 nm, λem 460 nm, reading interval, 30 s; assay time course, 5-30 min).

Human FXa = biological target: T5, Human FXa (Homo sapiens, UniProt P00742); assay: FXa inhibition assay; type: biochemical
T5 construct: Human β-FXIIa was obtained from Molecular Innovations, together with human FXa, human FXIa, human α-thrombin, and human plasma kallikrein; purchased Molecular Innovations; host or cells: purified from human plasma
Description: as §1

Human FXIa = biological target: T6, Human FXIa (Homo sapiens, UniProt P03951); assay: FXIa inhibition assay; type: biochemical
T6 construct: Human β-FXIIa was obtained from Molecular Innovations, together with human FXa, human FXIa, human α-thrombin, and human plasma kallikrein; purchased Molecular Innovations; host or cells: purified from human plasma
Description: as §1

Human thrombin = biological target: T7, Human thrombin (Homo sapiens, UniProt P00734); assay: Thrombin inhibition assay; type: biochemical
T7 construct: Human β-FXIIa was obtained from Molecular Innovations, together with human FXa, human FXIa, human α-thrombin, and human plasma kallikrein; purchased Molecular Innovations; host or cells: purified from human plasma
Description: as §1

Human plasma kallikrein = biological target: T8, Human plasma kallikrein (Homo sapiens, UniProt P03952); assay: Plasma kallikrein inhibition assay; type: biochemical
T8 construct: Human β-FXIIa was obtained from Molecular Innovations, together with human FXa, human FXIa, human α-thrombin, and human plasma kallikrein; purchased Molecular Innovations; host or cells: purified from human plasma
Description: as §1

Human plasmin = biological target: T9, Human plasmin (Homo sapiens, UniProt P00747); assay: Plasmin inhibition assay; type: biochemical
T9 construct: Human cationic trypsin and human plasmin were obtained from Sigma-Aldrich, and recombinant human matriptase was sourced from R&D Systems; purchased Sigma-Aldrich; host or cells: purified from human plasma
Description: as §1

Rec. human uPA = biological target: T10, Rec. human uPA (Homo sapiens, UniProt P00749); assay: uPA inhibition assay; type: biochemical
T10 construct: made in house; host or cells: Expi293 cells
Description: as §1

Rec. human tPA = biological target: T11, Rec. human tPA (Homo sapiens, UniProt P00750); assay: tPA inhibition assay; type: biochemical
T11 construct: made in house; host or cells: Expi293 cells
Description: as §1

Rec. human matriptase = biological target: T12, Rec. human matriptase (Homo sapiens, UniProt Q9Y5Y6); assay: Matriptase inhibition assay; type: biochemical
T12 construct: purchased R&D Systems
T12 sequence (Q9Y5Y6 615-855 limits assumed): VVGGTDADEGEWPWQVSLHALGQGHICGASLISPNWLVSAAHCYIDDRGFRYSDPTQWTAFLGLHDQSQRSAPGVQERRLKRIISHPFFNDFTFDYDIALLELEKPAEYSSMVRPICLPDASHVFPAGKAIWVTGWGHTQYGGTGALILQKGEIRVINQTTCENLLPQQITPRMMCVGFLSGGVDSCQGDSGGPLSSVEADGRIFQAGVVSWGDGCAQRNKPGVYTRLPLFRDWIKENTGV
Description: as §1

T5 sequence (P00742 235-488 limits assumed): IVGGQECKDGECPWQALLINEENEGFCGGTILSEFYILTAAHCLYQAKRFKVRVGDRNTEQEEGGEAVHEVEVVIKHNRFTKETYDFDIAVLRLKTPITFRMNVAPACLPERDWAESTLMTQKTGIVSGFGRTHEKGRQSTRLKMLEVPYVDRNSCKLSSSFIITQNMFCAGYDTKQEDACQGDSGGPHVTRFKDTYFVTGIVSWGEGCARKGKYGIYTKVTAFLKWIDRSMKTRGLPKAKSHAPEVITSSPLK
T5 sequence (P00742 41-179 partner limits assumed): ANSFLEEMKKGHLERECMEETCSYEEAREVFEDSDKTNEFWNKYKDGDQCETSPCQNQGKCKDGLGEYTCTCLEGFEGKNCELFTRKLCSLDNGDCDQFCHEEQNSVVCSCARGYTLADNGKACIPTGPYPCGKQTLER
T11 sequence (P00750 36-562): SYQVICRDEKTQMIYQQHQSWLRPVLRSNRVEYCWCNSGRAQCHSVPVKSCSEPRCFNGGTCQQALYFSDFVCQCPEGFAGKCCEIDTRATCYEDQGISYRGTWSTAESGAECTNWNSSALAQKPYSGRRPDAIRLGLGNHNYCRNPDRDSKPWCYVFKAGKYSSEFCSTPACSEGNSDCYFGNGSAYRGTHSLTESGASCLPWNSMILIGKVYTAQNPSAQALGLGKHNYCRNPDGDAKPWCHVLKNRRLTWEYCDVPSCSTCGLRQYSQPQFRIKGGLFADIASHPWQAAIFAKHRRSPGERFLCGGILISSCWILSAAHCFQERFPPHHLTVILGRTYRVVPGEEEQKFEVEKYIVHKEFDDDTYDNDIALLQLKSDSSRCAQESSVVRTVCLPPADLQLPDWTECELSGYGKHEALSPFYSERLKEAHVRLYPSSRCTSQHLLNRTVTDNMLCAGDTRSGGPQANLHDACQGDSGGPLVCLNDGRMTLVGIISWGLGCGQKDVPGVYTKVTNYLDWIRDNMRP
T3 sequence (P00748 373-615 limits assumed, other chains not shown): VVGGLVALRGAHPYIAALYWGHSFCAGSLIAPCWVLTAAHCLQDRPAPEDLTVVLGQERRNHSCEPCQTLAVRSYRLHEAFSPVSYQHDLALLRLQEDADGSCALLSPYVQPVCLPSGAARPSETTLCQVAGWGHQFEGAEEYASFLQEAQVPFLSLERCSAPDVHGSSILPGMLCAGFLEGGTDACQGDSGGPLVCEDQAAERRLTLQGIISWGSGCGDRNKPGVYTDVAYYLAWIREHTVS
T6 sequence (P03951 388-625 limits assumed): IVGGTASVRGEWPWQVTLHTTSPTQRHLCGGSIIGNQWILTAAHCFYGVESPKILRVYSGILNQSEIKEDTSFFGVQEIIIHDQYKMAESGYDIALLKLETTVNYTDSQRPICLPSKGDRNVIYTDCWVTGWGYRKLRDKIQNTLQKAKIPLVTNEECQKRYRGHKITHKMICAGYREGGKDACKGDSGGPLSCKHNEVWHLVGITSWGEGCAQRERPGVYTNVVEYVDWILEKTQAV
T6 sequence (P03951 19-387 partner limits assumed): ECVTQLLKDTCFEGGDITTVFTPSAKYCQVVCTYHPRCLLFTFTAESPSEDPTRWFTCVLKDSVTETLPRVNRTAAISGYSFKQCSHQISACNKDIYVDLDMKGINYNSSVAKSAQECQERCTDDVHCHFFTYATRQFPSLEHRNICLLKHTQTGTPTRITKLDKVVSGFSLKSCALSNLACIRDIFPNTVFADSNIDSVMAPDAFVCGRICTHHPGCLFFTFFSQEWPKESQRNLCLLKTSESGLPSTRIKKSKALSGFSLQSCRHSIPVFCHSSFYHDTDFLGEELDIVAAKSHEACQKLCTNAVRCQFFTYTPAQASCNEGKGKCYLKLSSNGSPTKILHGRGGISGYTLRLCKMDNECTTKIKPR
T8 sequence (P03952 391-638 limits assumed): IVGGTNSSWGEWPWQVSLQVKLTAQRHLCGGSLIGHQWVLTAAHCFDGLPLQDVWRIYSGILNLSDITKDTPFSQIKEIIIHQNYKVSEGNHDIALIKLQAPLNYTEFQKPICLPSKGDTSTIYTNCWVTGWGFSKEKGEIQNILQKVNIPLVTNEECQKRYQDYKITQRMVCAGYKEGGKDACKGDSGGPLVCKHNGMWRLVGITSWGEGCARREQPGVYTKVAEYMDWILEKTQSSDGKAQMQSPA
T8 sequence (P03952 20-390 partner limits assumed): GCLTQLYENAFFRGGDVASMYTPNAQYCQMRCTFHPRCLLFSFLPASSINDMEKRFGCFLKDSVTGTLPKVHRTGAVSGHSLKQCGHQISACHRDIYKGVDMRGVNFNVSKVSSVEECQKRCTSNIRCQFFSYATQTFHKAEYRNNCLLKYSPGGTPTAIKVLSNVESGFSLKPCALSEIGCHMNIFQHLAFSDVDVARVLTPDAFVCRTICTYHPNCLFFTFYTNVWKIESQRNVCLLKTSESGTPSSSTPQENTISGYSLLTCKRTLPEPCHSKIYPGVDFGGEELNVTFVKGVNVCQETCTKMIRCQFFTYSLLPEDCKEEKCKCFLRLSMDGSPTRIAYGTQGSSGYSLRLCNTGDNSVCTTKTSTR
T9 sequence (P00747 581-810 limits assumed): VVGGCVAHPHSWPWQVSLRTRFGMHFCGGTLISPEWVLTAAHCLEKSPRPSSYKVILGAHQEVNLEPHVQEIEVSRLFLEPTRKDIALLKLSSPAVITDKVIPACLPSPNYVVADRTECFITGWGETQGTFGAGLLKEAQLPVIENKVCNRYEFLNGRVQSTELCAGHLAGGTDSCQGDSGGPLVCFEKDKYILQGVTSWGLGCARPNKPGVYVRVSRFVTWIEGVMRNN
T9 sequence (P00747 97-580 partner limits assumed): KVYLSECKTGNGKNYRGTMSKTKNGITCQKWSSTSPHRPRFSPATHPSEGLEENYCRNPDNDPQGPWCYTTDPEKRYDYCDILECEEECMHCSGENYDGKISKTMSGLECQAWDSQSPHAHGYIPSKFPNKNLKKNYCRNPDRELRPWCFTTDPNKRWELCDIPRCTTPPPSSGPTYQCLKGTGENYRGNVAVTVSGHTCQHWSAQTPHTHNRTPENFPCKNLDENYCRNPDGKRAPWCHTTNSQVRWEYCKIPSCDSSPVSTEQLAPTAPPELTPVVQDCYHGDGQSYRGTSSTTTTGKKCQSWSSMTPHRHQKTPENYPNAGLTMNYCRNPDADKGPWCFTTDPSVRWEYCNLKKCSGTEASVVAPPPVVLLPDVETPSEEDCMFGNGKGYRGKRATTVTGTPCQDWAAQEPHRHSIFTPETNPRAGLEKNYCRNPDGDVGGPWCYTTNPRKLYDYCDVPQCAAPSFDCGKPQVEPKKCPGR
T1 sequence (P00748 373-615 limits assumed, other chains not shown): as the sequence (P00748 373-615 limits assumed, other chains not shown) above

time to degradation in human serum (Stability in human serum) [h]	Compound	Kd [1] [nM]	Kd (bovine trypsin) [nM]	Ki (Human β-FXIIa) [nM]	resistance to serum proteases (in words) (Stability in human serum; human serum, 37° C., up to 24 h)	Ki (Human trypsin) [nM]	IC50 (Human FXa) [nM]	inhibition at 5 µM (Human FXa; read-out: percent inhibition FXa) [%]	IC50 (Human FXIa) [nM]	inhibition at 5 µM (Human FXIa; read-out: percent inhibition FXIa) [%]	IC50 (Human thrombin) [nM]	inhibition at 5 µM (Human thrombin; read-out: percent inhibition Thrombin) [%]	IC50 (Human plasma kallikrein) [nM]	inhibition at 5 µM (Human plasma kallikrein; read-out: percent inhibition Plasma kallikrein) [%]	Ki (Human plasmin) [nM]	IC50 (Rec. human uPA) [nM]	inhibition at 5 µM (Rec. human uPA; read-out: percent inhibition uPA) [%]	IC50 (Rec. human tPA) [nM]	inhibition at 5 µM (Rec. human tPA; read-out: percent inhibition tPA) [%]	Ki (Rec. human matriptase) [nM]
–	CC[C@H](C)[C@H](NC(=O)CNC(=O)CNC(=O)[C@@H](N)CC(=O)O)C(=O)N[C@H]1CSSC[C@@H]2NC(=O)[C@H](C)NC(=O)CNC(=O)[C@@H]3CCCN3C(=O)[C@@H]3CSSC[C@@H](C(=O)NCC(=O)N[C@@H](CO)C(=O)NCC(=O)N[C@@H](Cc4ccc(O)cc4)C(=O)O)NC(=O)[C@H](Cc4ccccc4)NC(=O)[C@H](CCCNC(=N)N)NC(=O)[C@H]([C@@H](C)O)NC(=O)[C@H](C)NC(=O)[C@H](CCCNC(=N)N)NC(=O)[C@H](CSSC[C@H](NC(=O)[C@H](CC(C)C)NC(=O)[C@H](CCCNC(=N)N)NC(=O)CNC(=O)[C@H]([C@@H](C)CC)NC(=O)[C@H](CCCNC(=N)N)NC(=O)[C@@H]4CCCN4C1=O)C(=O)N[C@@H](CCCNC(=N)N)C(=O)N[C@@H](CCCNC(=N)N)C(=O)N[C@@H](CC(=O)O)C(=O)N[C@@H](CO)C(=O)N[C@@H](CC(=O)O)C(=O)N3)NC(=O)[C@H]([C@@H](C)CC)NC2=O [MCoFx1 acyclic] (H-DGGICPRIGRLCRRDSDCPGACICRATRFCGSGY-OH; disulfide 5-22, 12-24, 18-30)	1.89 ± 0.04	59.6	0.73 ± 0.2	highly resistant to serum proteases	–	–	–	–	–	–	–	–	–	–	–	–	–	–	–
–	CC[C@H](C)[C@@H]1NC(=O)[C@@H]2CSSC[C@@H]3NC(=O)[C@H](C(C)C)NC(=O)CNC(=O)CNC(=O)[C@H](CC(=O)O)NC(=O)[C@H](CO)NC(=O)CNC(=O)[C@H](CO)NC(=O)CNC(=O)[C@@H]4CSSC[C@H](NC(=O)[C@H](CC(=O)O)NC(=O)[C@H](CO)NC(=O)[C@H](CC(=O)O)NC(=O)[C@H](CCCNC(=N)N)NC(=O)[C@H](CCCNC(=N)N)NC(=O)[C@H](CSSC[C@H](NC1=O)C(=O)N[C@@H](CCCNC(=N)N)C(=O)N[C@@H](C)C(=O)N[C@@H]([C@@H](C)O)C(=O)N[C@@H](CCCNC(=N)N)C(=O)N[C@@H](Cc1ccccc1)C(=O)N4)NC(=O)[C@H](CCCCN)NC(=O)[C@H](CCCCN)NC(=O)[C@H](CC(C)C)NC(=O)[C@H]([C@@H](C)CC)NC(=O)[C@H](CCCCN)NC(=O)[C@@H]1CCCN1C3=O)C(=O)N1CCC[C@H]1C(=O)NCC(=O)N[C@@H](C)C(=O)N2 [cMCoTI-fxL5] (cyclo(ACICRATRFCGSGSDGGVCPKILKKCRRDSDCPG); disulfide 2-19, 4-26, 10-32)	–	–	66	–	0.08	> 5000	0	> 5000	1	> 5000	3	> 5000	0	31	> 5000	0	> 5000	1	17
≤ 1	EAIYAAPFAKKK [reference compound]	–	–	–	–	–	–	–	–	–	–	–	–	–	–	–	–	–	–	–
